Measurements from ChEMBL document CHEMBL3621131, “Current developments of coumarin-based anti-cancer agents in medicinal chemistry” (Eur J Med Chem, 2015).
Converted amounts (≈) assume the structure as drawn. Each block holds one compound with its values, some of them ahead of it.

How the values were obtained:
[1] = Antiproliferative activity against human BT20 cells assessed as growth inhibition; format: functional; details: BT-20
NCI-H157 = experiment: Antiproliferative activity against human NCI-H157 cells assessed as growth inhibition; format: functional
K562 [2] = experiment: Antiproliferative activity against human K562 cells assessed as growth inhibition; format: functional
[3] = Antiproliferative activity against human DLD1 cells assessed as growth inhibition; format: functional; details: DLD-1
DU-145 [4] = experiment: Antiproliferative activity against human DU145 cells assessed as growth inhibition; format: functional
KB = experiment: Antiproliferative activity against human KB cells assessed as growth inhibition; format: functional, cell-based
MCF7 [5] = experiment: Antiproliferative activity against human MCF7 cells; format: functional, cell-based
NCI-H460 = experiment: Antiproliferative activity against human NCI-H460 cells assessed as growth inhibition; format: functional, cell-based
[6] = target: T1, M-phase inducer phosphatase 3 (Homo sapiens, UniProt P30307); experiment: Inhibition of human CDC25C phosphatase
T1 sequence (P30307 whole entry): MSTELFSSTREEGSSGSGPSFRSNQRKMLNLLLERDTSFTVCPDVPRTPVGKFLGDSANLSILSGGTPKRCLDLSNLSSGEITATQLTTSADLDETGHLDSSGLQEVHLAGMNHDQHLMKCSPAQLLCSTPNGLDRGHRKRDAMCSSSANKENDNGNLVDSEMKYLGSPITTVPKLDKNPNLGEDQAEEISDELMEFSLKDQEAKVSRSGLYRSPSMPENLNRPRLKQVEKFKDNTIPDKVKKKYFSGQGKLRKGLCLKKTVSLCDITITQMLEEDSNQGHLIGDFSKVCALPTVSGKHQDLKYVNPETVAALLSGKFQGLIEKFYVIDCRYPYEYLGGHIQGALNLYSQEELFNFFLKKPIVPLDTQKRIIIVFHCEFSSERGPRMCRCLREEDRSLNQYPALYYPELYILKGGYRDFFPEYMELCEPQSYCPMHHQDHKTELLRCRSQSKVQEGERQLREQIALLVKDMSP

[7] = Antiproliferative activity against human hTERT-HME1 cells assessed as growth inhibition; format: functional, cell-based
MDA-MB-231 [8] = experiment: Antiproliferative activity against human MDA-MB-231 cells assessed as growth inhibition; format: functional, cell-based
[9] = target: T2, M-phase inducer phosphatase 1 (Homo sapiens, UniProt P30304); experiment: Inhibition of human CDC25A phosphatase
T2 sequence (P30304 whole entry): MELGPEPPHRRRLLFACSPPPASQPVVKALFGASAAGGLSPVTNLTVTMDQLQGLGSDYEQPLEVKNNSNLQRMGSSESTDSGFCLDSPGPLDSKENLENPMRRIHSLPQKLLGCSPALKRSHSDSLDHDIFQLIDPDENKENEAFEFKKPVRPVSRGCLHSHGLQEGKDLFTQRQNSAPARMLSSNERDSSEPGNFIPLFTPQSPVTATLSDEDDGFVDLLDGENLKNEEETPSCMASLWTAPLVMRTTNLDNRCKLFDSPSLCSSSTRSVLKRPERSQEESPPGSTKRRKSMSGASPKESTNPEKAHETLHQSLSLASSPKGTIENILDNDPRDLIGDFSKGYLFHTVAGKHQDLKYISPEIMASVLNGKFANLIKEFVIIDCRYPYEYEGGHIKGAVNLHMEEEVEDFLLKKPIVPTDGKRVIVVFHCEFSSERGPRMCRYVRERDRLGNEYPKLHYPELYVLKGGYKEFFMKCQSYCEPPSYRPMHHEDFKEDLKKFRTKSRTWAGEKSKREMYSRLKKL

MCF7 [10] = experiment: Antiproliferative activity against human MCF7 cells assessed as growth inhibition; format: functional, cell-based
[11] = target: T3, M-phase inducer phosphatase 2 (Homo sapiens, UniProt P30305); experiment: Inhibition of human CDC25B phosphatase
T3 sequence (P30305 whole entry): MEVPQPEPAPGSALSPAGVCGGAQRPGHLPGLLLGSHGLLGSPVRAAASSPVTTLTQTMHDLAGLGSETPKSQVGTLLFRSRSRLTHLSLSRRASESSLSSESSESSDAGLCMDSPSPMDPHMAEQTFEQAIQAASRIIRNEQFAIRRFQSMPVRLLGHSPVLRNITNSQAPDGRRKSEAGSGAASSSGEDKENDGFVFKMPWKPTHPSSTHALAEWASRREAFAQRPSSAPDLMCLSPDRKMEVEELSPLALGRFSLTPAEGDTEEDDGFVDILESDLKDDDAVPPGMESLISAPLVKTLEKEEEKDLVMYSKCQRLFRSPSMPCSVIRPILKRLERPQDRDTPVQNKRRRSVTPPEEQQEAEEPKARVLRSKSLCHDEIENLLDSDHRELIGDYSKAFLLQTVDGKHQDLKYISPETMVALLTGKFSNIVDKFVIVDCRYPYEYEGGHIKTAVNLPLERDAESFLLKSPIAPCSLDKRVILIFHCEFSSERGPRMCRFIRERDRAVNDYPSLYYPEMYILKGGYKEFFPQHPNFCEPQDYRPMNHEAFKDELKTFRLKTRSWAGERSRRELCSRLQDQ

MCF7 [12] = experiment: Antitumor activity against human MCF7 cells assessed as cell viability by MTT assay; format: functional, cell-based
K562 [13] = experiment: Antitumor activity against human K562 cells assessed as cell viability by MTT assay; format: functional, cell-based
SK-N-MC = experiment: Cytotoxicity against human SK-N-MC cells as cell viability by MTT assay; format: functional, cell-based
MDA-MB-231 [14] = experiment: Cytotoxicity against human MDA-MB-231 cells assessed as cell viability by MTT assay; format: functional, cell-based
A549 = experiment: Antitumor activity against human A549 cells assessed as cell viability incubated for 72 hrs by MTT assay; format: functional, cell-based; details: A549, 72 h
MCF7 [15] = experiment: Cytotoxicity against human MCF7 cells assessed as cell viability incubated for 72 hrs by SRB assay; format: functional, cell-based; details: MCF7, 72 h
HepG2 [16] = experiment: Cytotoxicity against human HepG2 cells assessed as cell viability incubated for 72 hrs by SRB assay; format: functional, cell-based; details: HepG2, 72 h
HCT-15 = experiment: Cytotoxicity against human HCT15 cells assessed as cell viability incubated for 72 hrs by SRB assay; format: functional, cell-based; details: HCT-15, 72 h
HepG2 [17] = experiment: Cytotoxicity against human HepG2 cells assessed as cell viability by MTT assay; format: functional, cell-based
DU-145 [18] = experiment: Antiproliferative activity against human DU145 cells assessed as growth inhibition by tryphan blue exclusion method; format: functional

IC50 (KB): 5.18 µM
Compound: COc1cc(OC)cc(-c2cc3ccc(OC(C)=O)c(OC(C)=O)c3oc2=O)c1

IC50 (MCF7 [5]): < 10 µM
Compound: Cc1cc(C(=O)c2ccccc2Br)ccc1OCC(=O)NNC(=O)c1cc2ccccc2oc1=O

IC50 (MCF7 [5]): < 10 µM
Compound: Cc1ccc(C(=O)c2cc(F)c(OCC(=O)NNC(=O)c3cc4ccccc4oc3=O)c(Cl)c2)cc1

IC50 (MCF7 [5]): < 10 µM
Compound: Cc1cc(C(=O)c2ccc(Cl)cc2Cl)ccc1OCC(=O)NNC(=O)c1cc2ccccc2oc1=O

IC50 (NCI-H460): 10 µM
Compound: C/C(=N/NC(=O)c1cc2ccccc2oc1=O)c1cccnc1

IC50 [6]: ≤ 9 µM | IC50 (MDA-MB-231 [8]): ≤ 11 µM | IC50 [9]: ≤ 9 µM | IC50 (MCF7 [10]): ≤ 11 µM | IC50 [11]: ≤ 9 µM
Compound: COc1ccc2c(CSC3=CC(=O)c4ccccc4C3=O)cc(=O)oc2c1
IC50 [7]: 18 µM

IC50 (MCF7 [12]): 20.2 µM | IC50 (K562 [13]): 9.3 µM
Compound: CCc1nc([N+](=O)[O-])c(N2CCN(/C(=N/Nc3ccc4c(C)cc(=O)oc4c3)C(C)=O)CC2)n1Cc1ccccc1

IC50 (A549): 0.05 µM
Compound: COc1cccc(C2c3cc(C)ccc3Nc3c2c(=O)oc2ccccc32)c1 (stereo not drawn)

IC50 (A549): 0.14 µM | IC50 (MCF7 [12]): 0.52 µM
Compound: Cc1ccc2c(c1)C(c1ccccc1)c1c(c3ccccc3oc1=O)N2 (stereo not drawn)

More lines, now with the values behind:

Compound: O=c1oc2c(Br)cccc2cc1S(=O)(=O)Nc1ccc(Br)cc1
GI50 [1]: 12 µM | GI50 (NCI-H157): 12 µM | GI50 (K562 [2]): 12 µM | GI50 [3]: 12 µM | GI50 (DU-145 [4]): 12 µM

Compound: O=c1oc2ccccc2c2c1C(c1cc(Br)ccc1O)SCCN2 (stereo not drawn)
IC50 (SK-N-MC): 3.75 µg/mL (≈ 9.28 µM) | IC50 (MDA-MB-231 [14]): 3.75 µg/mL (≈ 9.28 µM) | IC50 (MCF7 [12]): 3.75 µg/mL

Compound: CC1=CP(C(c2ccccc2)(c2ccccc2)c2ccccc2)Oc2c1c(=O)oc1ccccc21 (stereo not drawn)
IC50 (MCF7 [15]): ≤ 3.89 µg/mL | IC50 (HepG2 [16]): ≤ 3.89 µg/mL

Compound: CCOC1(c2ccccc2)Oc2c(c(=O)oc3ccccc23)/C1=C\C(=O)c1ccccc1 (stereo not drawn)
IC50 (MCF7 [15]): 8 µM | IC50 (HCT-15): 8 µM

Compound: O=C(/C=C1\c2c(c3ccccc3oc2=O)OC1(c1ccccc1)N1CCCC1)c1ccccc1 (stereo not drawn)
IC50 (MCF7 [15]): 8 µM | IC50 (HCT-15): 8 µM

Compound: Cc1cc(-c2cc3cc(Cl)ccc3oc2=O)n(-c2nc(-c3ccc(Cl)cc3)cs2)n1
IC50 (HepG2 [17]): ≤ 3.25 µM

Compound: COc1ccc(-c2csc(-n3nc(C)cc3-c3cc4cc(Cl)ccc4oc3=O)n2)cc1
IC50 (HepG2 [17]): ≤ 3.25 µM

Compound: NCCCCCCCCNC(=O)c1c(O)c2ccccc2oc1=O
GI50 (DU-145 [18]): < 10 µM
